Assay results published in PubChem BioAssay AID330 (DTP/NCI, 2004).
Where “and” joins values, the source holds several entries; their conditions need not be identical. Identical values can stand only once. Inconclusive results and toxic doses are left out.

Test system: P388 leukemia ip, CD2F1 mice, survival T/C
Experiment: NCI In Vivo Anticancer Drug Screen. Data for tumor model P388 Leukemia (intraperitoneal) in CD2F1 (CDF1) mice
Conditions: endpoint: median survival time, higher = longer survival
Method in brief: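 Mice carrying the transplanted tumor received test compound or vehicle. Survival was recorded in each group, and the value is the treated-group measurement divided by that of the vehicle-treated control group.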

[1] = dose: 60.0 mg/kg/injection, schedule: Q01DX005 (ip), vehicle: saline with Tween-80
[2] = dose: 120.0 mg/kg/injection, schedule: Q01DX005 (ip), vehicle: saline with Tween-80
[3] = dose: 240.0 mg/kg/injection, schedule: Q01DX005 (ip), vehicle: saline with Tween-80
[4] = dose: 200.0 mg/kg/injection, schedule: Q01DX009 (ip), vehicle: saline
[5] = dose: 50.0 mg/kg/injection, schedule: Q01DX009 (ip), vehicle: saline
[6] = dose: 100.0 mg/kg/injection, schedule: Q01DX009 (ip), vehicle: saline
[7] = dose: 50.0 mg/kg/injection, schedule: Q01DX005 (ip), vehicle: saline with Tween-80
[8] = dose: 100.0 mg/kg/injection, schedule: Q01DX005 (ip), vehicle: saline with Tween-80
[9] = dose: 50.0 mg/kg/injection, schedule: Q01DX009 (ip), vehicle: saline with Tween-80
[10] = dose: 100.0 mg/kg/injection, schedule: Q01DX009 (ip), vehicle: saline with Tween-80
[11] = dose: 200.0 mg/kg/injection, schedule: Q01DX009 (ip), vehicle: saline with Tween-80
[12] = dose: 60.0 mg/kg/injection, schedule: Q01DX005 (ip), vehicle: saline
[13] = dose: 120.0 mg/kg/injection, schedule: Q01DX005 (ip), vehicle: saline
[14] = dose: 50.0 mg/kg/injection, schedule: Q01DX005 (ip), vehicle: Klucel (hydroxypropylcellulose) (HPC)
[15] = dose: 100.0 mg/kg/injection, schedule: Q01DX005 (ip), vehicle: Klucel (hydroxypropylcellulose) (HPC)
[16] = dose: 200.0 mg/kg/injection, schedule: Q01DX005 (ip), vehicle: Klucel (hydroxypropylcellulose) (HPC)
[17] = dose: 25.0 mg/kg/injection, schedule: Q01DX009 (ip), vehicle: saline with Tween-80
[18] = dose: 200.0 mg/kg/injection, schedule: Q01DX005 (ip), vehicle: saline with Tween-80
[19] = dose: 100.0 mg/kg/injection, schedule: Q04DX003 (ip), vehicle: saline with Tween-80

N#Cc1nc(CC(=O)c2ccccc2)c(CC(=O)c2ccccc2)nc1C#N
T/C [1]: 100 % of control | T/C [2]: 106 % of control and 94 % of control | T/C [3]: 100 % of control and 91 % of control

CO[C@H](C(=O)[C@@H](O)[C@@H](C)O)[C@@H]1Cc2cc3cc(O)c(C)c(O)c3c(O)c2C(=O)[C@H]1O
T/C (dose: 8.0 mg/kg/injection, schedule: Q01DX009 (ip), vehicle: water): 107 % of control | T/C (dose: 16.0 mg/kg/injection, schedule: Q01DX009 (ip), vehicle: water): 114 % of control | T/C (dose: 32.0 mg/kg/injection, schedule: Q01DX009 (ip), vehicle: water): 100 % of control

CCN1CCN(CCCl)C1=O
T/C [4]: 160 % of control

O=C(Nc1cc(Cl)cc(Cl)c1)OCCCl
T/C [1]: 100 % of control | T/C [2]: 98 % of control | T/C [3]: 91 % of control

C=CC(C)n1ccnc1 (centres undefined)
T/C [5]: 101 % of control | T/C [6]: 97 % of control | T/C [4]: 102 % of control

CC(C)(C)[Si](OC(=O)CCCc1ccc(N(CCCl)CCCl)cc1)(c1ccccc1)c1ccccc1
T/C (dose: 25.0 mg/kg/injection, schedule: Q01DX005 (ip), vehicle: saline with Tween-80): 123 % of control | T/C [7]: 155 % of control and 175 % of control | T/C [8]: 255 % of control

O=C(NC(=O)C(F)(F)F)Nc1cccc(C(F)(F)F)c1
T/C [9]: 114 % of control | T/C [10]: 94 % of control | T/C [11]: 94 % of control

CC1(C)OCC(N)[C@@H](O)CO1 (some centres undefined)
T/C [12]: 100 % of control | T/C [13]: 96 % of control | T/C (dose: 240.0 mg/kg/injection, schedule: Q01DX005 (ip), vehicle: saline): 100 % of control

O=C1CCCC2OC3CCCC(=O)C3C(c3ccccc3)C12 (centres undefined)
T/C (dose: 25.0 mg/kg/injection, schedule: Q01DX001 (ip), vehicle: Klucel (hydroxypropylcellulose) (HPC)): 96 % of control | T/C (dose: 50.0 mg/kg/injection, schedule: Q01DX001 (ip), vehicle: Klucel (hydroxypropylcellulose) (HPC)): 100 % of control | T/C (dose: 100.0 mg/kg/injection, schedule: Q01DX001 (ip), vehicle: Klucel (hydroxypropylcellulose) (HPC)): 90 % of control

Cc1cc(Cl)ccc1N=Cc1cccs1
T/C [5]: 90 % of control | T/C [6]: 90 % of control | T/C [4]: 89 % of control

C=CCNC(=S)NNC(=O)Cc1nc2ccccc2[nH]1
T/C [14]: 98 % of control | T/C [15]: 97 % of control | T/C [16]: 92 % of control

Cn1cnc([N+](=O)[O-])c1N
T/C (dose: 12.5 mg/kg/injection, schedule: Q01DX009 (ip), vehicle: saline with Tween-80): 106 % of control | T/C [17]: 119 % of control | T/C [9]: 103 % of control | T/C [10]: 106 % of control

O=C(Nc1nnc(-c2ccccc2)s1)c1cc(=O)c2ccccc2o1
T/C [7]: 93 % of control | T/C [8]: 96 % of control | T/C [18]: 92 % of control

[O-][Br+2]([O-])O
T/C [12]: 99 % of control | T/C [13]: 99 % of control

OCC1(O)OCC(O)C(O)C1O (centres undefined)
T/C [6]: 99 % of control | T/C [4]: 98 % of control | T/C (dose: 400.0 mg/kg/injection, schedule: Q01DX009 (ip), vehicle: saline): 105 % of control

O=C1NC(=Nc2ccccc2)N(c2ccccc2)C1=Nc1ccccc1
T/C [9]: 88 % of control | T/C [10]: 91 % of control | T/C [11]: 86 % of control

CC(C)c1cc(C(C)C)c(S(=O)(=O)N/N=C2\C=CCC(C)(C)C2)c(C(C)C)c1
T/C (dose: 50.0 mg/kg/injection, schedule: Q01DX009 (ip), vehicle: DMSO): 87 % of control | T/C (dose: 100.0 mg/kg/injection, schedule: Q01DX009 (ip), vehicle: DMSO): 89 % of control | T/C (dose: 200.0 mg/kg/injection, schedule: Q01DX009 (ip), vehicle: DMSO): 97 % of control

CC1Cc2ccc(OCCN(C)C)cc2C1=O (centres undefined)
T/C [7]: 98 % of control | T/C [8]: 99 % of control

CCCCCCC(=O)/C=C/c1ccc(OC(=O)c2ccc(C#N)cc2)cc1
T/C [9]: 100 % of control | T/C [10]: 101 % of control | T/C [11]: 95 % of control

CC(C)CC(=N)CC(C)C
T/C [7]: 100 % of control | T/C [8]: 100 % of control | T/C [18]: 96 % of control

CCOC(=O)NC1c2ccccc2Oc2c(C)cccc21 (centres undefined)
T/C [7]: 100 % of control | T/C [8]: 100 % of control | T/C [18]: 100 % of control

COc1cccc2c1C(=O)c1c(O)c3c(c(O)c1C2=O)C[C@@H](C(=O)CO)C[C@@H]3OC1CC(N)C(O)C(C)O1 (some centres undefined)
T/C (dose: 6.25 mg/kg/injection, schedule: Q04DX003 (ip), vehicle: water): 105 % of control | T/C (dose: 12.5 mg/kg/injection, schedule: Q04DX003 (ip), vehicle: water): 105 % of control | T/C (dose: 25.0 mg/kg/injection, schedule: Q04DX003 (ip), vehicle: water): 124 % of control

Cc1ccc([NH-])c([NH-])c1.[Cl][Pt+2][Cl]
T/C (dose: 1.56 mg/kg/injection, schedule: Q04DX002 (ip), vehicle: saline with Tween-80): 105 % of control and 108 % of control | T/C (dose: 3.12 mg/kg/injection, schedule: Q04DX002 (ip), vehicle: saline with Tween-80): 110 % of control | T/C (dose: 25.0 mg/kg/injection, schedule: Q04DX002 (ip), vehicle: saline with Tween-80): 150 % of control | T/C (dose: 50.0 mg/kg/injection, schedule: Q04DX002 (ip), vehicle: saline with Tween-80): 159 % of control

Cc1cccc(C(=O)/C=C2/CCCN2C)c1
T/C [19]: 110 % of control | T/C (dose: 200.0 mg/kg/injection, schedule: Q04DX003 (ip), vehicle: saline with Tween-80): 93 % of control

CCC[CH2][Sn]([CH3])([CH2]CC[N+](C)(C)C)[O]C(C)=O (centres undefined)
T/C (dose: 12.5 mg/kg/injection, schedule: Q01DX009 (ip), vehicle: saline): 105 % of control | T/C (dose: 25.0 mg/kg/injection, schedule: Q01DX009 (ip), vehicle: saline): 106 % of control | T/C [5]: 100 % of control and 115 % of control

C[Si](C)(C)C#CC[Si](C)(C)C
T/C [1]: 97 % of control | T/C [2]: 100 % of control | T/C [3]: 106 % of control

O=C=Nc1cccc2c1C(=O)c1ccccc1-2
T/C [14]: 91 % of control | T/C [15]: 88 % of control | T/C [16]: 86 % of control

c1ccc(N2CCSCC2)cc1
T/C (dose: 50.0 mg/kg/injection, schedule: Q04DX003 (ip), vehicle: saline): 104 % of control | T/C (dose: 66.0 mg/kg/injection, schedule: Q04DX003 (ip), vehicle: saline with Tween-80): 150 % of control | T/C [19]: 204 % of control | T/C (dose: 150.0 mg/kg/injection, schedule: Q04DX003 (ip), vehicle: saline with Tween-80): 190 % of control | T/C (dose: 200.0 mg/kg/injection, schedule: Q04DX003 (ip), vehicle: saline): 109 % of control

C[n+]1ccc(Nc2ccc(NC(=O)c3ccc(Nc4cc[n+](C)c5ccc([N+](=O)[O-])cc45)cc3)cc2)cc1
T/C (dose: 2.0 mg/kg/injection, schedule: Q01DX009 (ip), vehicle: saline): 164 % of control | T/C (dose: 4.0 mg/kg/injection, schedule: Q01DX009 (ip), vehicle: saline): 158 % of control and 178 % of control | T/C (dose: 8.0 mg/kg/injection, schedule: Q01DX009 (ip), vehicle: saline): 177 % of control and 195 % of control | T/C (dose: 16.0 mg/kg/injection, schedule: Q01DX009 (ip), vehicle: saline): 226 % of control and 257 % of control | T/C (dose: 32.0 mg/kg/injection, schedule: Q01DX009 (ip), vehicle: saline): 281 % of control and 288 % of control | T/C (dose: 64.0 mg/kg/injection, schedule: Q01DX009 (ip), vehicle: saline): 121 % of control

Cn1c2c(c3cc(I)ccc31)CCc1cncnc1-2
T/C (dose: 37.5 mg/kg/injection, schedule: Q01DX001 (ip), vehicle: Klucel (hydroxypropylcellulose) (HPC)): 102 % of control | T/C (dose: 75.0 mg/kg/injection, schedule: Q01DX001 (ip), vehicle: Klucel (hydroxypropylcellulose) (HPC)): 91 % of control | T/C (dose: 150.0 mg/kg/injection, schedule: Q01DX001 (ip), vehicle: Klucel (hydroxypropylcellulose) (HPC)): 91 % of control

O=C(O)CC1CC=CCC1CC(=O)O (centres undefined)
T/C (dose: 100.0 mg/kg/injection, schedule: Q01DX001 (ip), vehicle: saline sonified): 100 % of control | T/C (dose: 200.0 mg/kg/injection, schedule: Q01DX001 (ip), vehicle: saline sonified): 100 % of control | T/C (dose: 400.0 mg/kg/injection, schedule: Q01DX001 (ip), vehicle: saline sonified): 105 % of control

S=C1N=C2c3ccccc3C2C(=S)S1 (centres undefined)
T/C [17]: 93 % of control | T/C [9]: 101 % of control and 105 % of control | T/C [10]: 102 % of control and 120 % of control and 91 % of control | T/C [11]: 100 % of control and 104 % of control and 87 % of control
